Data: US11649227B2, “Allosteric chromenone inhibitors of phosphoinositide 3-kinase (PI3K) for the treatment of disease” (Petra Pharma Corporation, priority 2020, dated 2023)
Read-outs that look alike come from different tables or passages of the source. Values belong to the molecule of their own block, whether it stands above or below them.

How the values were obtained:
[1] = target: human full length PIK3CA Wild-type (p110α/p85α complex) (Homo sapiens (Human), UniProt P42336); experiment: PI3K-Alpha kinase (PIK3CA) activity, wild-type, Transcreener ADP2 FI assay; conditions: PI3K-α (PIK3CA) wild-type, biochemical
Chain of human full length PIK3CA Wild-type (p110α/p85α complex) (P42336 whole entry): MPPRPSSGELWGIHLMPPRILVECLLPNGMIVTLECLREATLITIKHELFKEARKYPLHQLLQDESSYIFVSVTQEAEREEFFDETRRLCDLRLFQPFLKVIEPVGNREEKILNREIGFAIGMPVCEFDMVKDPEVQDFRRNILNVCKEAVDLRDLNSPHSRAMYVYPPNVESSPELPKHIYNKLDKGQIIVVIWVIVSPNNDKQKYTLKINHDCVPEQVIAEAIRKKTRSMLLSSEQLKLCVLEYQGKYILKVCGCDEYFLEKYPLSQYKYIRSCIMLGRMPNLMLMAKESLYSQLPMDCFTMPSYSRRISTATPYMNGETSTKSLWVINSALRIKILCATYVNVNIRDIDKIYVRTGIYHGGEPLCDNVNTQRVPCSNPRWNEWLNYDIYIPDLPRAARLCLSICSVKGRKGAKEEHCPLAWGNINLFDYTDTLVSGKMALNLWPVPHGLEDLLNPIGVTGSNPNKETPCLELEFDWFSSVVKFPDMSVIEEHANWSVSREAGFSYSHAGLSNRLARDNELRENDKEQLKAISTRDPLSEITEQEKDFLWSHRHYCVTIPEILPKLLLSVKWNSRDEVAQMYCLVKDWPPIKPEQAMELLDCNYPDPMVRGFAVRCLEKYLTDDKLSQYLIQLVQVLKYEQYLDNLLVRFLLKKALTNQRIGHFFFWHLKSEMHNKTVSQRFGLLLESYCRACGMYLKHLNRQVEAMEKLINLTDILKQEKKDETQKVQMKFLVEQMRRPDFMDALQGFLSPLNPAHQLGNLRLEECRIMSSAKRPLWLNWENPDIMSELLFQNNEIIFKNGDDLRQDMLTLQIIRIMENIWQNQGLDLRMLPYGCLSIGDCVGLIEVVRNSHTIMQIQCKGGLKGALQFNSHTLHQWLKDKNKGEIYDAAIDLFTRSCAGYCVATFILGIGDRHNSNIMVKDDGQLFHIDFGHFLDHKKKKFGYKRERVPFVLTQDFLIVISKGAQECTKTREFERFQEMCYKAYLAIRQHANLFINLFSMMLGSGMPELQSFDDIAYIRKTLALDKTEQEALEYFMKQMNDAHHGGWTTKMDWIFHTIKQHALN
Chain of human full length PIK3CA Wild-type (p110α/p85α complex) (P27986 whole entry partner): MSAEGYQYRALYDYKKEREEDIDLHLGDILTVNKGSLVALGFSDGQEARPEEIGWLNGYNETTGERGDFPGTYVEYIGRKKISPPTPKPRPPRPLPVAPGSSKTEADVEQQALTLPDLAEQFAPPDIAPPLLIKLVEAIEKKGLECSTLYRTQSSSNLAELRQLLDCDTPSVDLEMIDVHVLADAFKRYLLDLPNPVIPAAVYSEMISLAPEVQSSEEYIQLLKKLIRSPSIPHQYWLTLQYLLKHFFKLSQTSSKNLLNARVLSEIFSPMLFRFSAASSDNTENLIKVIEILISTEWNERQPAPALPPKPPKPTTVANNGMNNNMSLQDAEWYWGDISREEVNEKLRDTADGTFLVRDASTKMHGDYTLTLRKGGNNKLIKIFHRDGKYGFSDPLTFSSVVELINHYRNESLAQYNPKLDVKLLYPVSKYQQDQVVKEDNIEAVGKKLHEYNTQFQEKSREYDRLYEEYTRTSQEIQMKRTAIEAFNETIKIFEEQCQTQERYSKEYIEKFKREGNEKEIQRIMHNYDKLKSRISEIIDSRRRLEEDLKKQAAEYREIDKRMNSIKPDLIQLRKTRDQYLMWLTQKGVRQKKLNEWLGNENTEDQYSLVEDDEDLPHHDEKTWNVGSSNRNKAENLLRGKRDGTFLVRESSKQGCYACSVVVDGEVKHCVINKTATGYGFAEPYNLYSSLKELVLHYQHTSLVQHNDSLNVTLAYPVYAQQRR
Outline: (§1)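 Recombinant full-length p110α/p85α (1-5 nM, wild-type or H1047R) preincubated with compound 1 h at 27° C, then reacted with 25 uM ATP and 50 uM PIP2diC8 or membrane PIP2:PS in pH 7.4 HEPES, 25 mM MgCl2, 5% DMSO (also pH 6.0/6.4 MOPS). Run to ~2.5 uM ADP; Transcreener ADP2 fluorescence converted via ADP calibration for IC50.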

[2] = target: human full length PIK3CA H1047R mutant (p110α/p85α complex) (Homo sapiens (Human), UniProt P42336, H1047R); experiment: PI3K-Alpha kinase (PIK3CA) activity, H1047R mutant, Transcreener ADP2 FI assay; conditions: PI3K-α (PIK3CA) H1047R mutant, biochemical
Chain of human full length PIK3CA H1047R mutant (p110α/p85α complex) (P42336 whole entry H1047R): as the sequence (P42336 whole entry) above, with H1047R counted along it
Chain of human full length PIK3CA H1047R mutant (p110α/p85α complex) (P27986 whole entry partner): as the sequence (P27986 whole entry partner) above
Outline: as §1

T-47D = experiment: Cellular Assay T-47D; type: cell-based; conditions: Homo sapiens, T47D; T-47D cells
PI3K-B = PI3K-B (Homo sapiens (Human), UniProt P42338); experiment: Selectivity against selected lipid kinases: PI3K-B; type: biochemical
PI3K-D = PI3K-D (Homo sapiens (Human), UniProt O00329); experiment: Selectivity against selected lipid kinases: PI3K-D; type: biochemical
Chain of PI3K-D (O00329 whole entry): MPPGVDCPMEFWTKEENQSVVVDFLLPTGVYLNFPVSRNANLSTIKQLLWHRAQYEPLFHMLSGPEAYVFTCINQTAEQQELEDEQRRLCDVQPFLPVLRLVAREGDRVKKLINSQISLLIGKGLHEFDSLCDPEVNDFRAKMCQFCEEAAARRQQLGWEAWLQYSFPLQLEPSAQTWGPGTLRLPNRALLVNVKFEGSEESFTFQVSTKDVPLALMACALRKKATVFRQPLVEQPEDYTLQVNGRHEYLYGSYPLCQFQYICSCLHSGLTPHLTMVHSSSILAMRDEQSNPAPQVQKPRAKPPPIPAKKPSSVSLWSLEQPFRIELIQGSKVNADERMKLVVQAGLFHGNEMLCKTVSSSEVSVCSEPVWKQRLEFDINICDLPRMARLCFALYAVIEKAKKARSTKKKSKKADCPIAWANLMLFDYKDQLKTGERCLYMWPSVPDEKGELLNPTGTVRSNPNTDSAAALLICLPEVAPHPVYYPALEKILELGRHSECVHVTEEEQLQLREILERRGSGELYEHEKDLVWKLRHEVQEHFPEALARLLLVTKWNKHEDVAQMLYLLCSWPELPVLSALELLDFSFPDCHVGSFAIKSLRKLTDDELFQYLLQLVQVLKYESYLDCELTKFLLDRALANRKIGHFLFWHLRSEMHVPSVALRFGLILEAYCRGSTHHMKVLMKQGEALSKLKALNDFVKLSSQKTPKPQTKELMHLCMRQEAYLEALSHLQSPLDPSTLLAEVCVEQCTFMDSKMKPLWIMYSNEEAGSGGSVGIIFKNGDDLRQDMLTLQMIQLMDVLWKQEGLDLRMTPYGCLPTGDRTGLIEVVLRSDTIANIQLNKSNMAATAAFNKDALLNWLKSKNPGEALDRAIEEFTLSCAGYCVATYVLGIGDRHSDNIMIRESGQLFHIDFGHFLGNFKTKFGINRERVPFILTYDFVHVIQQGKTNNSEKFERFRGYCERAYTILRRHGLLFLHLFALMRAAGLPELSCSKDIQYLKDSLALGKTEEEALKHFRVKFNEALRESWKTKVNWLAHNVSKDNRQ
Chain of PI3K-D (P27986 whole entry partner): as the sequence (P27986 whole entry partner) above

PI3K-G = PI3K-G (Homo sapiens (Human), UniProt P48736); experiment: Selectivity against selected lipid kinases: PI3K-G; type: biochemical
Chain of PI3K-G (P48736 whole entry): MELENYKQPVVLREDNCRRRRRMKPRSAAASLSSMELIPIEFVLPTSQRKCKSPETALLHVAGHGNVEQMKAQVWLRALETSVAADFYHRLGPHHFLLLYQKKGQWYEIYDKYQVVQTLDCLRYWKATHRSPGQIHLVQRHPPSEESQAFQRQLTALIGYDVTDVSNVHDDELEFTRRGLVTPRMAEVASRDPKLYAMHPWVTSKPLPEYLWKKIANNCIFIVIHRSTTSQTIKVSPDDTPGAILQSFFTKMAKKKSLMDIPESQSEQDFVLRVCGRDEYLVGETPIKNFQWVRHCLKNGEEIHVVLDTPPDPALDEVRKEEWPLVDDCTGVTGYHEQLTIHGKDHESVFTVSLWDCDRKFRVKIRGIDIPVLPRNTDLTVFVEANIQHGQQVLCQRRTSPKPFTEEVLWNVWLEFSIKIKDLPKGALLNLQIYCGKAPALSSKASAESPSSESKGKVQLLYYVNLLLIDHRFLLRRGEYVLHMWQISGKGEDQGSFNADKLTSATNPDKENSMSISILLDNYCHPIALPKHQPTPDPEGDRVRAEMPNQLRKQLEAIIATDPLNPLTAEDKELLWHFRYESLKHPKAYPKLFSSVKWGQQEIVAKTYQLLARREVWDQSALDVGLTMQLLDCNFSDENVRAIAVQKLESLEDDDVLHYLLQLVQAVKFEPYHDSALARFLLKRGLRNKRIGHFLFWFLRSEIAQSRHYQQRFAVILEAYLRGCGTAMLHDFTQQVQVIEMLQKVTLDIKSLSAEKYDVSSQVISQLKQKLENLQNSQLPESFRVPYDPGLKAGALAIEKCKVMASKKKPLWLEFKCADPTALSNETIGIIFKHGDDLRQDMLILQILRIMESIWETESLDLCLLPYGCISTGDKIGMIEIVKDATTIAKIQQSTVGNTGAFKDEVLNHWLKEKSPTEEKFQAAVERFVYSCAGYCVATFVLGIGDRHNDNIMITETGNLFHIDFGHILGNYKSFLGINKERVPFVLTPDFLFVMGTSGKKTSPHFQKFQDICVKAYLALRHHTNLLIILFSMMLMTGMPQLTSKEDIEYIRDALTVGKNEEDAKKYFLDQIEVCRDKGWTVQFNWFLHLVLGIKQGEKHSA

Vps34 = Vps34 (Homo sapiens (Human), UniProt Q8NEB9); experiment: Selectivity against selected lipid kinases: Vps34; type: biochemical
Chain of Vps34 (Q8NEB9 whole entry, species assumed): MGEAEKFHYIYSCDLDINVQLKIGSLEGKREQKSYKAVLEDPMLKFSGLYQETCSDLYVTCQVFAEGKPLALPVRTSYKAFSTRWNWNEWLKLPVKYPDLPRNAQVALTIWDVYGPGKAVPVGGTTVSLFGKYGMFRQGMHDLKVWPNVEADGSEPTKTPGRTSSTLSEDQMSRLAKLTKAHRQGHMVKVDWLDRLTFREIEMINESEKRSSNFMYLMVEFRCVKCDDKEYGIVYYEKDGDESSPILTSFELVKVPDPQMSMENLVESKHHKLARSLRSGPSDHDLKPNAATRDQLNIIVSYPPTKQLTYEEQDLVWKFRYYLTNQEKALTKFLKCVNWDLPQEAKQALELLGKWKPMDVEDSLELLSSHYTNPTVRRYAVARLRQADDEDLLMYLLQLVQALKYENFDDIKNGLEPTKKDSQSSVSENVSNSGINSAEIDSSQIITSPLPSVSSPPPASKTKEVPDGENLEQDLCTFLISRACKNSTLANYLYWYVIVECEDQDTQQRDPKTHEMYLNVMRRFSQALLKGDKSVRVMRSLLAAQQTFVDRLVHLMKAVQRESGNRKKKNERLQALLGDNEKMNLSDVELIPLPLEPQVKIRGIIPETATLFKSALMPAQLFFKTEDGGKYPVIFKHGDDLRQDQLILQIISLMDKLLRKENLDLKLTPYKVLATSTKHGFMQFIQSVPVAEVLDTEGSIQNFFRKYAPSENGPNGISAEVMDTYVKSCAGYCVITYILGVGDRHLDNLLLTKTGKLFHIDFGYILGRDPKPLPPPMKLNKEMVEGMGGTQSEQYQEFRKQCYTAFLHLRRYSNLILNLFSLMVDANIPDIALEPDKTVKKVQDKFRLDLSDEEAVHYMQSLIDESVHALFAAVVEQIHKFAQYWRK

DNA-PK = DNA-PK (Homo sapiens (Human), UniProt P78527); experiment: Selectivity against selected lipid kinases: DNA-PK; type: biochemical
mTOR = mTOR (Homo sapiens (Human), UniProt P42345); experiment: Selectivity against selected lipid kinases: mTOR; type: biochemical
Mouse PK Assays = conditions: in vivo; for clearance: read-out: PK-Mouse: IV Cl; for bioavailability: read-out: PK-Mouse: PO F (%)
[3] = IV 1 mg/kg, read-out: PK-Mouse: IV-AUC-0-last
[4] = PO 10 mg/kg, 30% SBE-beta-cyclodextrin, fed
[5] = PO 50 mg/kg, 20% DMSO/60% PEG400/20% Water, fed
[6] = PO 50 mg/kg, 20% DMSO/60% PEG400/20% Water, fed, read-out: PK-Mouse: PO AUC-0-last
[7] = PO 10 mg/kg, 20% DMSO/60% PEG400/20% Water, fed

SMILES: Cc1cc(C(C)Nc2ccccc2C(=O)O)c2oc(N3CCC(C)(C)CC3)cc(=O)c2c1 (single isomer, unassigned) [Example 366, 2-[1-[2-(4,4-Dimethyl-1-piperidyl)-6-methyl-4-oxo-chromen-8-yl]ethylamino]benzoic acid]
EC50 (T-47D): 1 to 5 µM
IC50 (PI3K-B): > 10000 nM
IC50 (PI3K-D): > 10 µM
IC50 (PI3K-G): > 10 µM
IC50 (Vps34): > 10000 nM
IC50 (DNA-PK): > 10000 nM
IC50 (mTOR): > 10 µM
clearance (Mouse PK Assays; IV 1 mg/kg): 43 mL/min/kg
AUC(0-t) (Mouse PK Assays; [3]): 343 ng·h/mL
Cmax (Mouse PK Assays; [4]): 350 ng/mL
AUC(0-t) (Mouse PK Assays; PO 10 mg/kg, 30% SBE-beta-cyclodextrin, fed, read-out: PK-Mouse: PO AUC-0-last): 3.9 ng·h/mL
bioavailability (Mouse PK Assays; [4]): 100%
Cmax (Mouse PK Assays; [5]): 8.56 ng/mL
AUC(0-t) (Mouse PK Assays; [6]): 48 ng·h/mL
Cmax (Mouse PK Assays; PO 100 mg/kg, 20% DMSO/60% PEG400/20% H2O, fed): 22.6 ng/mL
AUC(0-t) (Mouse PK Assays; PO 100 mg/kg, 20% DMSO/60% PEG400/20% H2O, fed, read-out: PK-Mouse: PO AUC-0-last): 76 ng·h/mL

SMILES: Cc1cc(C(C)Nc2ccccc2-c2nnn[nH]2)c2oc(N3CCC(C)(C)CC3)cc(=O)c2c1 (centres unmarked) [Example 20, 2-(4,4-Dimethyl-1-piperidyl)-6-methyl-8-[1-[2-(1H-tetrazol-5-yl)anilino]ethyl]chromen-4-one]
IC50 [1]: 500 to 1000 nM
EC50 (T-47D): 15 to 24 µM

SMILES: COc1cc(C(=O)O)c(NC(C)c2cc(C)cc3c(=O)cc(N4CCC(C)(C)CC4)oc23)cc1F (centres unmarked) [Example 1, 2-[1-[2-(4,4-dimethyl-1-piperidyl)-6-methyl-4-oxo-chromen-8-yl]ethylamino]-4-fluoro-5-methoxy-benzoic acid]
IC50 [2]: 1000 to 5000 nM
EC50 (T-47D): 15 to 24 µM

SMILES: Cc1cc(C(C)Nc2ccccc2C(=O)O)c2oc(N3CCC3)cc(=O)c2c1 (centres unmarked) [Example 375, 2-[1-[2-(Azetidin-1-yl)-6-methyl-4-oxo-chromen-8-yl]ethylamino]benzoic acid]
EC50 (T-47D): > 24 µM

SMILES: Cc1cc(C(C)Nc2ccccc2S(N)(=O)=O)c2oc(N3CCC(C)(C)CC3)cc(=O)c2c1 (centres unmarked) [Example 21, 2-[1-[2-(4,4-Dimethyl-1-piperidyl)-6-methyl-4-oxo-chromen-8-yl]ethylamino]benzenesulfonamide]
EC50 (T-47D): 5 to 15 µM

SMILES: Cc1cc(C(C)Nc2ccccc2C(=O)O)c2oc(NCC(C)C)cc(=O)c2c1 (centres unmarked) [Example 77, 2-[1-[2-(Isobutylamino)-6-methyl-4-oxo-chromen-8-yl]ethylamino]benzoic acid]
EC50 (T-47D): > 24 µM

SMILES: Cc1cc(C(C)Nc2ccccc2C(=O)O)c2oc(N3CCN(C(=O)OC(C)(C)C)CC3)cc(=O)c2c1 (centres unmarked) [Example 90, 2-[1-[2-(4-tert-Butoxycarbonylpiperazin-1-yl)-6-methyl-4-oxo-chromen-8-yl]ethylamino]benzoic acid]
EC50 (T-47D): 15 to 24 µM

SMILES: Cc1cc(C(C)Nc2cc(F)c(F)cc2C(=O)O)c2oc(N3CCC(C)(C)CC3)cc(=O)c2c1 (centres unmarked) [Example 13, 2-[1-[2-(4,4-Dimethyl-1-piperidyl)-6-methyl-4-oxo-chromen-8-yl]ethylamino]-4,5-difluoro-benzoic acid]
EC50 (T-47D): 15 to 24 µM

SMILES: CCNc1cc(=O)c2cc(C)cc(C(C)Nc3ccccc3C(=O)O)c2o1 (centres unmarked) [Example 126, 2-[1-[2-(Ethylamino)-6-methyl-4-oxo-chromen-8-yl]ethylamino]benzoic acid]
IC50 [2]: 500 to 1000 nM
EC50 (T-47D): > 24 µM

SMILES: Cc1cc(C(C)Nc2ccccc2C(=O)O)c2oc(N3CCC4(CCNCC4)CC3)cc(=O)c2c1 (centres unmarked) [Example 89, 2-[1-[2-(3,9-Diazaspiro[5.5]undecan-3-yl)-6-methyl-4-oxo-chromen-8-yl]ethylamino]benzoic acid]
EC50 (T-47D): > 24 µM

SMILES: Cc1cc(C(C)Nc2ccc(C#N)cc2C(=O)O)c2oc(N3CCC(C)(C)CC3)cc(=O)c2c1 (centres unmarked) [Example 6, 5-Cyano-2-[1-[2-(4,4-dimethyl-1-piperidyl)-6-methyl-4-oxo-chromen-8-yl]ethylamino]benzoic acid]
EC50 (T-47D): 1 to 5 µM

SMILES: Cc1cc(C(C)Nc2ccc(F)cc2C(=O)O)c2oc(N3CCC(C)(C)CC3)cc(=O)c2c1 (centres unmarked) [Example 14, 2-[1-[2-(4,4-Dimethyl-1-piperidyl)-6-methyl-4-oxo-chromen-8-yl]ethylamino]-5-fluoro-benzoic acid]
EC50 (T-47D): 1 to 5 µM

SMILES: Cc1cc(C(C)Nc2ccccc2C(=O)O)c2oc(N3Cc4ccccc4C3)cc(=O)c2c1 (single isomer, unassigned) [Example 363, 2-[1-(2-Isoindolin-2-yl-6-methyl-4-oxo-chromen-8-yl)ethylamino]benzoic acid]
EC50 (T-47D): 1 to 5 µM
IC50 (PI3K-B): 110 nM
IC50 (PI3K-D): > 10 µM
IC50 (PI3K-G): > 10 µM
IC50 (Vps34): 450 nM
IC50 (DNA-PK): 980 nM
IC50 (mTOR): 7.8 µM
clearance (Mouse PK Assays; IV 1 mg/kg): 8.2 mL/min/kg
AUC(0-t) (Mouse PK Assays; [3]): 2130 ng·h/mL
Cmax (Mouse PK Assays; [7]): 1300 ng/mL
AUC(0-t) (Mouse PK Assays; PO 10 mg/kg, 20% DMSO/60% PEG400/20% Water, fed, read-out: PK-Mouse: PO AUC-0-last): 18000 ng·h/mL
bioavailability (Mouse PK Assays; [7]): 87%
Cmax (Mouse PK Assays; [5]): 5100 ng/mL
AUC(0-t) (Mouse PK Assays; [6]): 31000 ng·h/mL
bioavailability (Mouse PK Assays; [5]): 33%

Second part, the molecule after the results:

IC50 [1]: 1000 to 5000 nM
IC50 [2]: 500 to 1000 nM
EC50 (T-47D): 1 to 5 µM
SMILES: Cc1cc(C(C)Nc2ccccc2C(=O)O)c2oc(N3CCC4(CCCC4)CC3)cc(=O)c2c1 (centres unmarked) [Example 96, 2-[1-[2-(8-Azaspiro[4.5]decan-8-yl)-6-methyl-4-oxo-chromen-8-yl]ethylamino]benzoic acid]

IC50 [1]: 5000 to 10000 nM
IC50 [2]: 500 to 1000 nM
EC50 (T-47D): 5 to 15 µM
SMILES: Cc1cc(C(C)Nc2ccccc2C(=O)O)c2oc(N3CCC4(CCCCO4)CC3)cc(=O)c2c1 (centres unmarked) [Example 93, 2-[1-[6-Methyl-2-(1-oxa-9-azaspiro[5.5]undecan-9-yl)-4-oxo-chromen-8-yl]ethylamino]benzoic acid]

IC50 [1]: 500 to 1000 nM
EC50 (T-47D): 15 to 24 µM
SMILES: CONC(=O)c1ccccc1NC(C)c1cc(C)cc2c(=O)cc(N3CCC(C)(C)CC3)oc12 (centres unmarked) [Example 19, 2-[1-[2-(4,4-Dimethyl-1-piperidyl)-6-methyl-4-oxo-chromen-8-yl]ethylamino]-N-methoxy-benzamide]

IC50 [1]: 1000 to 5000 nM
EC50 (T-47D): 1 to 5 µM
SMILES: Cc1cc([C@@H](C)Nc2ccccc2C(=O)O)c2oc(N3CCCCC3)cc(=O)c2c1 [Example 376, 2-[[(1R)-1-[6-Methyl-4-oxo-2-(1-piperidyl)chromen-8-yl]ethyl]amino]benzoic acid]

IC50 [2]: 1000 to 5000 nM
EC50 (T-47D): > 24 µM
SMILES: Cc1cc(C(C)Nc2ccccc2C(=O)O)c2oc(N3CCC4(CC3)CN(C)C(=O)O4)cc(=O)c2c1 (centres unmarked) [Example 380, 2-[1-[6-Methyl-2-(3-methyl-2-oxo-1-oxa-3,8-diazaspiro[4.5]decan-8-yl)-4-oxo-chromen-8-yl]ethylamino]benzoic acid]

EC50 (T-47D): 5 to 15 µM
SMILES: COc1ccc(NC(C)c2cc(C)cc3c(=O)cc(N4CCC(C)(C)CC4)oc23)c(C(=O)O)c1 (centres unmarked) [Example 15, 2-[1-[2-(4,4-Dimethyl-1-piperidyl)-6-methyl-4-oxo-chromen-8-yl]ethylamino]-5-methoxy-benzoic acid]

EC50 (T-47D): > 24 µM
SMILES: COC(=O)c1ccccc1N[C@H](C)c1cc(C)cc2c(=O)cc(N3CCCCC3)oc12 [Example 379, Methyl 2-[[(1R)-1-[6-methyl-4-oxo-2-(1-piperidyl)chromen-8-yl]ethyl]amino]benzoate]

IC50 [1]: 1000 to 5000 nM
IC50 [2]: < 500 nM
EC50 (T-47D): 1 to 5 µM
SMILES: Cc1cc(C(C)Nc2ccccc2C(=O)O)c2oc(N3CCC(F)(F)CC3)cc(=O)c2c1 (single isomer, unassigned) [Example 130, 2-[1-[2-(4,4-Difluoro-1-piperidyl)-6-methyl-4-oxo-chromen-8-yl]ethylamino]benzoic acid]
